Series [1] has as its target T1, recombinant hCaV3.3 channels (Homo sapiens, UniProt Q9P0X4).
T1 construct: expressed in transfected cells
Nature of the series: QPatch whole-cell patch-clamp, CaV3.3. The class given is cell-based. On the procedure:
(§1) The human embryonic kidney 293 (HEK 293) cell lines (from Emmanuel Bourinet, Montpellier, France) stably expressing CaV3.2 or CaV3.3 [41] were cultured under 5% carbon dioxide at 37 °C in Dulbecco’s Modified Eagle Medium (DMEM) Glutamax (Gibco, Life Technologies, Carlsbad, CA, USA) supplemented with 10% (v/v) fetal bovine serum (FBS), 100 U/mL penicillin, 100 μg/mL streptomycin (Gibco, Life Technologies), and 750 μg/mL geneticin (G418) (Gibco, Life Technologies). The Chinese Hamster Ovary (CHO) cell lines (Emmanuel Bourinet, Montpellier, France) expressing CaV3.1 [42] were cultured under 5% carbon dioxide at 37 °C in Alpha Minimum Essential Media (MEM) Glutamax (Gibco, Life Technologies), supplemented with 10% (v/v) fetal bovine serum (FBS) and 300 μg/mL geneticin (G418) (Gibco, Life Technologies). The human neuroblastoma SH-SY5Y cells (Victor Diaz, Goettingen, Germany) were cultured under 5% carbon dioxide at 37 °C in RPMI 1640 antibiotic-free medium (Invitrogen, Carlsbad, CA, USA), supplemented with 15% FBS and 2 mM GlutaMAX™ (Invitrogen). D-PBS (Gibco, Life Technologies) was used to wash the cells, and 0.25% Trypsin-EDTA (Gibco, Life Technologies) was used to detach the cells from the flask surface. They were split in a ratio of 1:5 (ideally 1000 cells/cm^2) when they reached 70–80% confluence (every 2–3 days).
(§2) Whole-cell patch-clamp experiments were performed on an automated electrophysiology platform QPatch 16 X (Sophion Bioscience A/S, Ballerup, Denmark) in a single-hole configuration using 16-channel planar patch chip QPlates (Sophion Bioscience A/S). The extracellular recording solution contained, in mM: TEACl 157, MgCl2 0.5, CaCl2 5, and HEPES 10; pH 7.4 adjusted with TEAOH; and osmolarity 320 mOsm. The intracellular pipette solution contained, in mM: CsF 140, EGTA 1, HEPES 10, and NaCl 10; pH 7.2 adjusted with CsOH; and osmolarity 325 mOsm. […]
(§3) The data were plotted and analyzed using GraphPad Prism v8.0 (GraphPad Software Inc., San Diego, CA, USA). […]
Background: In patch-clamp work, channel activity is measured electrically.

Series [2] has as its target T2, recombinant hCaV3.2 channels (Homo sapiens, UniProt O95180).
T2 construct: expressed in transfected cells
Nature of the series: QPatch whole-cell patch-clamp, CaV3.2. It is filed as cell-based. As for the experimental part:
as §1, §2, §3

The subject of series [3] is recombinant hCaV3.1 channel. Nature of the series: QPatch whole-cell patch-clamp, CaV3.1. It is filed as cell-based. Particulars: human CaV3.1 in CHO cells. As for the experimental part: as §1, with “They were split in a ratio of 1:5 (ideally 1000 cells/cm^2) when they reached 70–80% confluence (every 2–3 days).” left out
as §3

Series [4] concerns human HVA N-type CaV2.2. Description: N-type CaV2.2 FLIPR assay in SH-SY5Y cells. The class given is cell-based. Particulars: 0.781–200 µM, 10 µM nifedipine, agonist 90 mM KCl + 5 mM CaCl2, n = 4. On the procedure: as §1, with “D-PBS (Gibco, Life Technologies) was used to wash the cells, and 0.25% Trypsin-EDTA (Gibco, Life Technologies) was used to detach the cells from the flask surface. They were split in a ratio of 1:5 (ideally 1000 cells/cm^2) when they reached 70–80% confluence (every 2–3 days).” left out
(§4) SH-SY5Y cells were seeded into 384-well black wall clear bottom plates at a density of 15,000 cells per well, resulting in 90–95% confluence after 24 h. […] The fluorescence readings were recorded and converted as described previously, and an agonist containing 90 mM KCl + 5 mM CaCl2 was used in the second addition.

Series [5] concerns Lucilia cuprina (Australian sheep blowflies). Nature of the series: Insecticidal activity against sheep blowflies (injection). The class given is in vivo. Conditions: 1, 4 and 10 μg per fly injected; 10 flies per group; paralytic effects at 0.5, 1, 2 and 24 h.
Series [6] deals with L-type CaVs. Nature of the series: L-type CaV FLIPR assay in SH-SY5Y cells. Particulars: 0.781–200 µM, 1 µM CVID, agonist 90 mM KCl + 5 mM CaCl2, n = 4. The class given is cell-based, human. On the procedure: as §1, with “D-PBS (Gibco, Life Technologies) was used to wash the cells, and 0.25% Trypsin-EDTA (Gibco, Life Technologies) was used to detach the cells from the flask surface. They were split in a ratio of 1:5 (ideally 1000 cells/cm^2) when they reached 70–80% confluence (every 2–3 days).” left out
as §4

Series [7] has as its system T-type CaVs (CaV3.1 and CaV3.2). Conditions: ref [9],[10]; cited from earlier work. From the text: Scorpions are venomous arachnids of the order Scorpiones, with around 2798 currently (December 2023) described species distributed on all continents except Antarctica. Scorpion venoms are complex mixtures of peptides, enzymes, mucoproteins, amino acids (aa), nucleotides, lipids, amines, heterocyclic components, inorganic salts, and probably other yet to be described substances. They are rich sources of neurotoxic polypeptides that recognize and bind to ion channels of excitable and non-excitable cells and modulate their functional properties. Based on the specific binding propertie ...

Entries after “also recorded” stand apart in the source; their conditions may differ. Where a SMILES comes first, the peptide text is derived from it. Bridges are numbered along the chain shown (N, C = ends). Where no end group is shown, it is not given here.

T1 sequence (Q9P0X4 whole entry): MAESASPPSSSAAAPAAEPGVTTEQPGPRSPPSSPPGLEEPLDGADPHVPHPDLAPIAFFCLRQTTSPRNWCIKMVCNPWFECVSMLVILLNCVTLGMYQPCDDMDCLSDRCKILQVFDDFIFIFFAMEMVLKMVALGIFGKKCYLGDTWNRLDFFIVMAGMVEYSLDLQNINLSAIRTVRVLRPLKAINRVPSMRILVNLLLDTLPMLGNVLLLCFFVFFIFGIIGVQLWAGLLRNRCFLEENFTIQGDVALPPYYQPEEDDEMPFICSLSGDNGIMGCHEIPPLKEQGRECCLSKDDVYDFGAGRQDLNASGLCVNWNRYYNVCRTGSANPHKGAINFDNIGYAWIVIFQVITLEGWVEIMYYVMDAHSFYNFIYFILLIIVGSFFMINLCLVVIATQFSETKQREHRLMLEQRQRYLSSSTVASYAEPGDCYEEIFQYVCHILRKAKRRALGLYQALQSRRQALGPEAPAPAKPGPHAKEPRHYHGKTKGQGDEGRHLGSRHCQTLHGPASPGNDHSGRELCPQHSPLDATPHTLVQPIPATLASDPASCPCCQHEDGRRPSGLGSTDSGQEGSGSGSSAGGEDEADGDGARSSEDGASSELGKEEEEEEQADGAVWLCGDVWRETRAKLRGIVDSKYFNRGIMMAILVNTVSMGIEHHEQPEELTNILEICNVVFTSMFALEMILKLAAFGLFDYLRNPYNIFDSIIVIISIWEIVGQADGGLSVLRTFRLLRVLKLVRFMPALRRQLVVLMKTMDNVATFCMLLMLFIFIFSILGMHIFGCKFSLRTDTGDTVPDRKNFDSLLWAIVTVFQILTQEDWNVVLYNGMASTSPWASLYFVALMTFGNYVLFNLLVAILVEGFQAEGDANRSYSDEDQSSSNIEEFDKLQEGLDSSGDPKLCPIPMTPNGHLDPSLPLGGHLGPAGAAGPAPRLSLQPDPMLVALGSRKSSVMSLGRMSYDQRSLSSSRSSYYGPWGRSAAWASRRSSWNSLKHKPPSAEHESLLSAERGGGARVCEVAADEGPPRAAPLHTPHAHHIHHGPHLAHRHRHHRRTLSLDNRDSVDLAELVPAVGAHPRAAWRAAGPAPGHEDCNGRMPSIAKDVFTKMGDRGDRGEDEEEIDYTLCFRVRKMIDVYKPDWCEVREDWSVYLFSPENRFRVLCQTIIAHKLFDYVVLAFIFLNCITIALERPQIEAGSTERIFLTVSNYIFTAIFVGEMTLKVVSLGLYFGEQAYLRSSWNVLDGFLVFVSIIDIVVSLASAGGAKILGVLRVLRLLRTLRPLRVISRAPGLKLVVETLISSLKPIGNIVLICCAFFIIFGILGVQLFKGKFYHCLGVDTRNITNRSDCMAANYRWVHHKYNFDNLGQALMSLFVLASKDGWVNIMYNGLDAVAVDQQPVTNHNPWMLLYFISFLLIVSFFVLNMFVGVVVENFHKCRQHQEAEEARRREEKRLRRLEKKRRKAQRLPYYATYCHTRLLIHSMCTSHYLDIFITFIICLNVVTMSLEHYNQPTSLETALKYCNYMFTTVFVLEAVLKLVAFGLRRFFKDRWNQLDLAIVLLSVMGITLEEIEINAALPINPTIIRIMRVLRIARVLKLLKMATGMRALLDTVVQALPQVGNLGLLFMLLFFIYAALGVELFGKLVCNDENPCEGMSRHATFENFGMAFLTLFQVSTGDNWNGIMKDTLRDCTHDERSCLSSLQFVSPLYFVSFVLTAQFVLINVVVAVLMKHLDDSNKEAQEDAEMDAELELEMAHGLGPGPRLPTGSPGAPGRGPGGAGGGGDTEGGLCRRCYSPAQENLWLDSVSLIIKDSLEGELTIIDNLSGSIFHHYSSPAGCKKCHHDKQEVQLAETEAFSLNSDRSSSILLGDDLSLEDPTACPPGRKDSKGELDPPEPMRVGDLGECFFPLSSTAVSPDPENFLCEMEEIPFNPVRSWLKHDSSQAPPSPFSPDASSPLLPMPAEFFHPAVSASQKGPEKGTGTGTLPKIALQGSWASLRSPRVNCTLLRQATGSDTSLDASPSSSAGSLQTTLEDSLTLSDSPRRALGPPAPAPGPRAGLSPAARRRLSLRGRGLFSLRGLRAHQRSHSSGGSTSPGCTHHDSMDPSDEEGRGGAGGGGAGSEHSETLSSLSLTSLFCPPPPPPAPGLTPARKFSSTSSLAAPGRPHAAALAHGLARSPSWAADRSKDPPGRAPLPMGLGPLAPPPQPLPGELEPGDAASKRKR
T2 sequence (O95180 whole entry): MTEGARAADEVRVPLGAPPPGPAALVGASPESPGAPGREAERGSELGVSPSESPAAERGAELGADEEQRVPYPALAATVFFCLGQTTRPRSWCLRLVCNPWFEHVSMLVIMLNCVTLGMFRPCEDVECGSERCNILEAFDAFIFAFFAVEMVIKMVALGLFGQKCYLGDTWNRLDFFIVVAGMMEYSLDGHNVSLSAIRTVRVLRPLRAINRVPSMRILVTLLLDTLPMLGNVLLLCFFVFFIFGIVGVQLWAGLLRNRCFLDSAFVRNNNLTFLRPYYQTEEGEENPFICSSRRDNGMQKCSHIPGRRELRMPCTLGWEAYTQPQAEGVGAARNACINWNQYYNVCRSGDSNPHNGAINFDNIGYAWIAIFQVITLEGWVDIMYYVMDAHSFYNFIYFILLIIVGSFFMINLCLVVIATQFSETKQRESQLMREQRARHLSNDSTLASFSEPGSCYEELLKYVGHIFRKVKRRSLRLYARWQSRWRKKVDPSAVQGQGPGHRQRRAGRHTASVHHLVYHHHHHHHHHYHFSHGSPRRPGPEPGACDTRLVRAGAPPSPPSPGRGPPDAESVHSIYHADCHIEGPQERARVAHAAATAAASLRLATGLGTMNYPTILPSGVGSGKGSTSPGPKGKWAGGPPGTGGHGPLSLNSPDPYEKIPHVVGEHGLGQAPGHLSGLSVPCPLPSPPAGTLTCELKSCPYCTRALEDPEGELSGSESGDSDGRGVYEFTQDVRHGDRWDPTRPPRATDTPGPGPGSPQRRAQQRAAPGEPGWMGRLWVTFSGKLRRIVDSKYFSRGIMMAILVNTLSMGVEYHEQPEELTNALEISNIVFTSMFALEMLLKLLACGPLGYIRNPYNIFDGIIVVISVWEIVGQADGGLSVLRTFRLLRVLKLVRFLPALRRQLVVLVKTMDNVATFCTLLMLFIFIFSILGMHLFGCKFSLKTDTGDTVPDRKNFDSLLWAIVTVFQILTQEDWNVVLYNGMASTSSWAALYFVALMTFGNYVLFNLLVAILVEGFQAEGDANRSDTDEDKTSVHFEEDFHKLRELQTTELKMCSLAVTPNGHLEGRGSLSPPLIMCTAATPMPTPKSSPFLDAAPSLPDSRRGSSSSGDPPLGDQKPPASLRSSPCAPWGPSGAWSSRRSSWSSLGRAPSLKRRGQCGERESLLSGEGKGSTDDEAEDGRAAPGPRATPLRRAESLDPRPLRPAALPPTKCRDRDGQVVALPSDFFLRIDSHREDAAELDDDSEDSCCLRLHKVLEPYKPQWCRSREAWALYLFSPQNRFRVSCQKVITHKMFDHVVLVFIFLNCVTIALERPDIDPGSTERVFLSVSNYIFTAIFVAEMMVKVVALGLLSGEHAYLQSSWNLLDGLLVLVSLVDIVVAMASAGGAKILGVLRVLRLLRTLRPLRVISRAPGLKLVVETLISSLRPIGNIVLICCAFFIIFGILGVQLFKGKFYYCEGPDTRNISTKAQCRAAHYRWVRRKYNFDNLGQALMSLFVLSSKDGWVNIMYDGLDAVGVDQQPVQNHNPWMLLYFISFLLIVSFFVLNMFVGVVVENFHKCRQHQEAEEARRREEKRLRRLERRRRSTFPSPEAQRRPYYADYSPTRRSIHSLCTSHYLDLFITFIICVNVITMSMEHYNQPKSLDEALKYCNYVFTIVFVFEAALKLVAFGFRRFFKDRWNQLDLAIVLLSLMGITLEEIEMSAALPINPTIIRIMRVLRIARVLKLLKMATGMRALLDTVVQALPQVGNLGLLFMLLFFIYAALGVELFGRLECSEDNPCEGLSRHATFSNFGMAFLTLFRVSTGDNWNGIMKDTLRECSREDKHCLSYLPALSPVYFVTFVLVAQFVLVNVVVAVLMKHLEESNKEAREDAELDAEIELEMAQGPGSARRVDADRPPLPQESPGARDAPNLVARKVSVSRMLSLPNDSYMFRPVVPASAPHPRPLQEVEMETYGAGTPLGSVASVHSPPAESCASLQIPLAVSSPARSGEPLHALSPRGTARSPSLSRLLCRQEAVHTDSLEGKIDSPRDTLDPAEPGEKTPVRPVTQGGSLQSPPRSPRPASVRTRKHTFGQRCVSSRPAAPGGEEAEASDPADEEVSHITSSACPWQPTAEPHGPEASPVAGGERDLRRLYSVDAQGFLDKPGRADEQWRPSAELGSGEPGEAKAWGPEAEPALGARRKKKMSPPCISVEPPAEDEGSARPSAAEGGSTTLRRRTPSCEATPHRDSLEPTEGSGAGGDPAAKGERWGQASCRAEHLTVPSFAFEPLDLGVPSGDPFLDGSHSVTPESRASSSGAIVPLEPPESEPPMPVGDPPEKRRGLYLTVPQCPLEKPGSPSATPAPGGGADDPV

What is called inhibition is the share of the control response that was lost under treatment. The term IC50 denotes the concentration that gives 50% inhibition. As for `C[C@@H](O)[C@@H]1NC(=O)[C@@H](NC(=O)[C@@H](N)Cc2c[nH]cn2)CSSC[C@@H](C(=O)N[C@@H](Cc2c[nH]c3ccccc23)C(N)=O)NC(=O)[C@H](Cc2c[nH]cn2)NC(=O)[C@H](CC(N)=O)NC(=O)[C@H](CO)NC(=O)[C@H](CC(N)=O)NC(=O)[C@@H]2CCCN2C1=O` [Hf1a-NH2] (H-HCTPNSNHCW-NH2; disulfide 2-9), where the note is “24 h post-injection, intraplantar”, the “Adverse effects on locomotor performance” value is “no adverse effects on locomotor performance”. Also, the “Abnormal motor function during treadmill run” value (mouse, in vivo) is “no abnormal motor functions like foot slips were noticed”. Moreover, the “Distance covered on treadmill” value (mouse, in vivo) was “showed no difference”. In addition, the inhibition at 25 µM was determined as 44.6% in series [1] (25 μM, holding −90 mV, 200 ms to −10 mV, n = 4, read-out: CaV3.3 current inhibition at 25 μM) and 31.7% in series [2] (25 μM, holding −90 mV, 200 ms to −25 mV, n = 4, read-out: CaV3.2 current inhibition at 25 μM). Further, the IC50 stood at 490 nM in series [1] (partial inhibition, QPatch, holding −90 mV, 200 ms steps to −10 mV, 5 mM CaCl2, 0.1% BSA, pH 7.4, n = 4, means ± SEM, read-out: IC50 (CaV3.3 depolarized currents)) and 1180 nM in series [2] (partial inhibition, QPatch, holding −90 mV, 200 ms steps to −25 mV, 5 mM CaCl2, 0.1% BSA, pH 7.4, n = 4, means ± SEM, read-out: IC50 (CaV3.2 depolarized currents)).

Turning to “HCTPNSNHCW (disulfide 2-9 (inferred)) [Hf1a-OH]”, the “Effect on CaV3.3 current (in words)” value in series [1] (QPatch, human CaV3.3 in HEK 293 cells) was “failed to show activity in any of the three subtypes; also recorded: did not show activity against any of the three T-type subtypes”. Also, the “Effect on CaV3.1 current (in words)” value in series [3] is “failed to show activity in any of the three subtypes; also recorded: did not show activity against any of the three T-type subtypes”. In series [4], the “Effect on N-type CaV2.2” value is “neither form showed activity; also recorded: neither form of ω-Buthitoxin-Hf1a affected N-type or L-type CaVs; also recorded: Neither Hf1a-NH2 nor Hf1a-OH showed activity against L- and N-type HVA CaVs”. Besides, in series [5], the “Insecticidal activity against adult sheep blowflies” value is “no insecticidal activity; also recorded: neither Hf1a-OH nor Hf1a-NH2 showed observable insecticidal activity”. In addition, the “Effect on CaV3.2 current (in words)” value in series [2] (QPatch, human CaV3.2 in HEK 293 cells) was “failed to show activity in any of the three subtypes; also recorded: did not show activity against any of the three T-type subtypes”. For the same molecule, in series [6], the “Effect on L-type CaVs” value was “neither form showed activity; also recorded: neither form of ω-Buthitoxin-Hf1a affected N-type or L-type CaVs; also recorded: Neither Hf1a-NH2 nor Hf1a-OH showed activity against L- and N-type HVA CaVs”.

B1: kurtoxin (protein, UniProt P58910 1-63, looked up)
Kurtoxin: KIDGYPVDYWNCKRICWYNNKYCNDLCKGLKADSGYCWGWTLSCYCQGLPDNARIKRSGRCRA
As to B1, the “Selective binding to T-type CaVs (CaV3.1 and CaV3.2)” value in series [7] is “first and only scorpion toxin shown to selectively bind T-type CaVs (CaV3.1 and CaV3.2)”.

Source of the values: PMC11084959 (International Journal of Molecular Sciences, 2024).
